The subject of assay [1] is PD-L1. The assay is described as follows: X-ray crystallography of PD-L1/peptide complexes. In kind it is binding. The settings on record: crystal structures of PD-L1/peptide-71 (2.5 Å) and PD-L1/peptide-57 (below 1 Å).
The test system of assay [2] is PD-L1. The assay is described as follows: differential scanning fluorimetry. In kind it is binding. The settings on record: DSF; for melting temperature of PD-L1 (Tm): PD-L1 alone Tm 37.6°C; for stabilization of PD-L1 against thermal induced unfolding: relative to PD-L1 alone (Tm 37.6°C). For orientation: Differential scanning fluorimetry follows unfolding on heating by fluorescence.

Bridge positions count the residues as written; N and C are the ends. Square brackets hold non-standard residues; d marks the D form. Peptide text beside a SMILES is read from it. NMeF = CN[C@@H](Cc1ccccc1)C(=O)O; NMeNle = CCCC[C@H](NC)C(=O)O; NMeA = CN[C@@H](C)C(=O)O; Sar = CNCC(=O)O

Turning to `CCCC[C@H]1C(=O)N(C)[C@@H](CCCC)C(=O)N[C@@H](CCCNC(=N)N)C(=O)N[C@H](C(=O)NCC(N)=O)CSCC(=O)N[C@@H](Cc2ccccc2)C(=O)N(C)[C@@H](C)C(=O)N[C@@H](CC(N)=O)C(=O)N2CCC[C@H]2C(=O)N[C@@H](Cc2c[nH]cn2)C(=O)N[C@@H](CC(C)C)C(=O)N(C)CC(=O)N[C@@H](Cc2c[nH]c3ccccc23)C(=O)N[C@@H](CO)C(=O)N[C@@H](Cc2c[nH]c3ccccc23)C(=O)N1C` [peptide-57] ({CH2CO}-F[NMeA]NPHL[Sar]WSW[NMeNle][NMeNle]RCG-NH2; thioether N-14; N-terminus and C-terminus assumed), the “binding site on PD-L1” value in assay [1] was “bind to PD-L1 partially at the site of the PD-1 interaction”. In assay [2], the “melting temperature of PD-L1 (Tm)” value came out at 51.6 °C and the “stabilization of PD-L1 against thermal induced unfolding” value is 14 °C.

For `CCCC[C@H]1C(=O)N(C)CC(=O)N[C@@H](CC(=O)O)C(=O)N[C@@H](C(C)C)C(=O)N(C)[C@@H](Cc2ccccc2)C(=O)N[C@@H](Cc2ccc(O)cc2)C(=O)N(C)CC(=O)N[C@@H](Cc2c[nH]c3ccccc23)C(=O)N[C@@H](Cc2ccc(O)cc2)C(=O)N[C@@H](CC(C)C)C(=O)N[C@H](C(=O)NCC(N)=O)CSCC(=O)N[C@@H](Cc2ccccc2)C(=O)N(C)[C@@H](Cc2ccccc2)C(=O)N1C` [peptide-71] ({CH2CO}-F[NMeF][NMeNle][Sar]DV[NMeF]Y[Sar]WYLCG-NH2; thioether N-13; N-terminus and C-terminus assumed), in assay [1], the “binding site on PD-L1” value is given as “bind to PD-L1 partially at the site of the PD-1 interaction”. Further, in assay [2], the “melting temperature of PD-L1 (Tm)” value turned out to be 56.6 °C and the “stabilization of PD-L1 against thermal induced unfolding” value was 19 °C.
